From PMC10454678, “Synthesis of hydroxy benzoin/benzil analogs and investigation of their antioxidant, antimicrobial, enzyme inhibition, and cytotoxic activities” (Turkish Journal of Chemistry, 2021)
≈ marks a conversion by molar mass, not a printed value.

How the values were obtained:
[1] = test system: Escherichia coli ATCC 25922; assay: MIC, microdilution, E. coli; assay type: cell-based; conditions: Gram (-); Mueller-Hinton broth, 18-24 h, 36 °C
[2] = test system: Yersinia pseudotuberculosis ATCC911; assay: microbe, parasite or virus in culture; assay type: cell-based; conditions: Gram (-); Mueller-Hinton broth, 18-24 h, 36 °C
[3] = test system: Pseudomonas aeruginosa ATCC27853; assay: MIC, microdilution, P. aeruginosa; assay type: cell-based; conditions: Gram (-); Mueller-Hinton broth, 18-24 h, 36 °C
[4] = test system: Staphylococcus aureus ATCC25923; assay: MIC, microdilution, S. aureus; assay type: cell-based; conditions: Gram (+); Mueller-Hinton broth, 18-24 h, 36 °C
[5] = test system: Streptococcus mutans RSKK07038; assay: MIC, microdilution, S. mutans; assay type: cell-based; conditions: Gram (+); BHI broth, 72 h, 36 °C
[6] = test system: Enterococcus faecalis ATCC29212; assay: MIC, microdilution, E. faecalis; assay type: cell-based; conditions: Gram (+); Mueller-Hinton broth, 18-24 h, 36 °C
Bacillus cereus Roma709 = assay: MIC, microdilution, B. cereus; assay type: cell-based; conditions: Gram (+); Mueller-Hinton broth, 18-24 h, 36 °C
[7] = test system: Mycobacterium smegmatis ATCC607; assay: MIC, microdilution, M. smegmatis; assay type: cell-based; conditions: Tub.; BHI broth, 72 h, 36 °C
[8] = test system: Candida albicans ATCC60193; assay: MIC, microdilution, C. albicans; assay type: cell-based; conditions: fungus; YEPD broth, 48 h, 36 °C
acetylcholinesterase = acetylcholinesterase (Homo sapiens, UniProt P22303); assay: biochemical; conditions: Tris-HCl pH 8.0, 25 °C, 405 nm; for IC50: read-out: AChE IC50 (converted)
butyrylcholinesterase = butyrylcholinesterase (Homo sapiens, UniProt P06276); assay: biochemical; conditions: Tris-HCl pH 8.0, 25 °C, 405 nm; for IC50: read-out: BChE IC50 (converted)
tyrosinase = tyrosinase (Agaricus bisporus, UniProt C7FF04); assay: Tyrosinase inhibition (dopachrome method); assay type: biochemical; conditions: L-DOPA substrate, pH 6.8, 25 °C, 492 nm
α-amylase = α-amylase (Sus scrofa, UniProt P00690); assay: α-Amylase inhibition (Caraway-Somogyi I2/KI method); assay type: biochemical; conditions: starch, pH 6.9, 37 °C, 630 nm
α-glucosidase = assay: α-Glucosidase inhibition; assay type: biochemical; conditions: PNPG, pH 6.8, 37 °C, 400 nm
Experimental: It was incubated at 37 °C for 15 min. Similarly, an enzyme-free blank was prepared. The reaction was stopped when sodium carbonate (50 μL, 0.2 M) was added.

[9] = DPPH radical scavenging activity; conditions: 0.1 mM DPPH, 50 min dark, 517 nm
[10] = Copper ions reducing activity (CUPRAC); conditions: Trolox equivalents; 30 min dark, room temperature, 450 nm
[11] = Ferric reducing antioxidant power (FRAP) assay; conditions: Trolox equivalents, compounds 2 mg/mL, 30 °C 30 min, 595 nm
[12] = test system: human retinal normal cell line (RPE); assay: MTT cell proliferation, RPE; conditions: MTT, 24 h incubation
[13] = test system: human cervical cancer cell line (HeLa); assay: MTT cell proliferation, HeLa; conditions: MTT, 24 h incubation
[14] = test system: Paenibacillus larvae DSM7030; assay: MIC, microdilution, P. larvae; assay type: cell-based; conditions: Gram (+) nonpathogenic spore forming
[15] = test system: Bacillus subtilis ATCC1266; assay: MIC, microdilution, B. subtilis; assay type: cell-based; conditions: Gram (+) nonpathogenic spore forming

Sequence of acetylcholinesterase (P22303 32-614, species assumed): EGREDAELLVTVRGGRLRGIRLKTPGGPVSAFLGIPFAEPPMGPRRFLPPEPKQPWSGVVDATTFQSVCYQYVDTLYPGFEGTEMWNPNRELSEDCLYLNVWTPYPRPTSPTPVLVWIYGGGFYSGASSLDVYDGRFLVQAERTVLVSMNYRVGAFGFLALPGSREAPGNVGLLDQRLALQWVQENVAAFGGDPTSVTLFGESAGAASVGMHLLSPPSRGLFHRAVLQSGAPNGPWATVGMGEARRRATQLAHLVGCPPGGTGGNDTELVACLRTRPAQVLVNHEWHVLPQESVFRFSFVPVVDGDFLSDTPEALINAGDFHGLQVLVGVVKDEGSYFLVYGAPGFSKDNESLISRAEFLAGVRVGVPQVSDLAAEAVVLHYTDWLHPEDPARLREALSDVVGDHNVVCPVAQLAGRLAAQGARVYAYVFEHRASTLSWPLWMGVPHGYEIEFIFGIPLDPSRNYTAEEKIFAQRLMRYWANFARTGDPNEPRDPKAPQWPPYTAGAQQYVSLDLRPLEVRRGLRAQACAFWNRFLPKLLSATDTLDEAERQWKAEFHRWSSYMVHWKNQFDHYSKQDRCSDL
Sequence of butyrylcholinesterase (P06276 29-602): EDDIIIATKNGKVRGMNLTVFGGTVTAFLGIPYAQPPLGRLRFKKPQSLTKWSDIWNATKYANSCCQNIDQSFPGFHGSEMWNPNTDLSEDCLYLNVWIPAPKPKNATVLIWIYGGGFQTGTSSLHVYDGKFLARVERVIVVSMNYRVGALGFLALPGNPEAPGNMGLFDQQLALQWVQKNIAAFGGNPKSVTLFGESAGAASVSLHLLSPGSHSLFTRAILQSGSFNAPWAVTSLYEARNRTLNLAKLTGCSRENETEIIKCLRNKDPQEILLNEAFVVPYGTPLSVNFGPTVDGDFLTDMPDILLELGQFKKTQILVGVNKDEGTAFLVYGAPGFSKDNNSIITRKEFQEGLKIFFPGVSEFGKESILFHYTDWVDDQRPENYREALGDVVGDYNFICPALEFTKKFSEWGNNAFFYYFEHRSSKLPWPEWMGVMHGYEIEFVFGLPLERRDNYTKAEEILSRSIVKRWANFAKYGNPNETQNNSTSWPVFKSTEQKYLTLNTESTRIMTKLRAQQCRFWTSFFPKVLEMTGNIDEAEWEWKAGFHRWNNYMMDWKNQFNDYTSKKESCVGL
Sequence of α-amylase (P00690 16-511): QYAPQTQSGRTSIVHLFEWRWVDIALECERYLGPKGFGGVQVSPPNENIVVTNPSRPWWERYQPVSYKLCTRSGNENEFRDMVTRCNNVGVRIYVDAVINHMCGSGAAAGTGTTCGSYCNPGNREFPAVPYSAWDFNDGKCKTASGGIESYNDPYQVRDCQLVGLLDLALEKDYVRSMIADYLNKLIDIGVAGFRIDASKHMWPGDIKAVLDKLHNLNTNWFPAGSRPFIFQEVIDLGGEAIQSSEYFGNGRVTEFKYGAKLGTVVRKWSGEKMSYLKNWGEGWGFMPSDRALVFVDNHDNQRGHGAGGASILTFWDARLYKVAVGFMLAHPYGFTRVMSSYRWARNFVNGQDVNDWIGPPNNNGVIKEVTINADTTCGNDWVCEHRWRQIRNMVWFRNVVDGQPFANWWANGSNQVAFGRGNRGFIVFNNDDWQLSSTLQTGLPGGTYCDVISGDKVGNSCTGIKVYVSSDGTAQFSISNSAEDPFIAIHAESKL
Sequence of tyrosinase (C7FF04 1-392): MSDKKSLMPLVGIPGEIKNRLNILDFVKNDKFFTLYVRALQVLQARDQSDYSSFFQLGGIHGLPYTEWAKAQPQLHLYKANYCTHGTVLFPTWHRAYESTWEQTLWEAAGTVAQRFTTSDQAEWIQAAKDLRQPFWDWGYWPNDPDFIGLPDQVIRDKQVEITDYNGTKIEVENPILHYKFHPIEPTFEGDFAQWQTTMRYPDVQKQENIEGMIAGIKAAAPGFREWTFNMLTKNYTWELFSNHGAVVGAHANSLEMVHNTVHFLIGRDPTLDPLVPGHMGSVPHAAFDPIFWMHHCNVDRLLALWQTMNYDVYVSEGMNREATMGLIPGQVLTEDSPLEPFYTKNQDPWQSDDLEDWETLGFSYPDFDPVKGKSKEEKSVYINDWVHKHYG

Compound: 2-Hydroxy-1-(3,5-dihydroxyphenyl)-2-(3-hydroxyphenyl)ethanone and 2-Hydroxy-1-(3-hydroxyphenyl)-2-(3,5-dihydroxyphenyl)ethanone [6a+b]
- MIC Ec [1]: 103 µg/mL
- MIC Yp [2]: 103 µg/mL
- MIC Pa [3]: 52 µg/mL
- MIC Sa [4]: 12 µg/mL
- MIC Sm [5]: 12 µg/mL
- MIC Ef [6]: 24 µg/mL
- MIC Bc (Bacillus cereus Roma709): 24 µg/mL
- MIC Ms [7]: 12 µg/mL
- MIC Ca [8]: 103 µg/mL
- AChE IC50 (acetylcholinesterase): >1000 µg/mL
- BChE IC50 (butyrylcholinesterase): 592.92 µg/mL
- Tyrosinase IC50 (tyrosinase): 25.45 µg/mL
- α-Amylase IC50 (α-amylase): 230.76 µg/mL
- α-Glucosidase IC50 (α-glucosidase): 76.53 µg/mL
- DPPH radical scavenging capacity (SC50) [9]: 9.48 ± 0.3 mg/mL
- CUPRAC, copper reducing antioxidant power [10]: 506.67 ± 17.3 μg/mL trolox/gram DW
- FRAP, the iron reducing antioxidant power [11]: 2237 ± 58.3 μg/mL trolox/gram DW
- FRAP, the iron reducing antioxidant power ([11]; listed as 6): 2237±58.3 μg/mL trolox/gram DW

Compound: 2-Hydroxy-1-(3-O- β -D-glucopyranosylphenyl)-2-(3-hydroxyphenyl)-ethanone; 2-Hydroxy-1-(3-hydroxyphenyl)-2-(3-O- β -D-glucopyranosylphenyl)ethanone [18a+b]
- Tyrosinase IC50 (tyrosinase): >1000 µg/mL
- α-Amylase IC50 (α-amylase): >1000 µg/mL
- α-Glucosidase IC50 (α-glucosidase): >1000 µg/mL
- GI50 RPE normal cell line [12]: 1.90 µg/mL
- IC50 RPE normal cell line [12]: 83.81 µg/mL
- GI50 HeLa cell line [13]: 2.23 µg/mL
- IC50 HeLa cell line [13]: 104.49 µg/mL
- DPPH radical scavenging capacity (SC50) [9]: 12.11 ± 0.43 mg/mL
- CUPRAC, copper reducing antioxidant power [10]: 385.80 ± 37.12 μg/mL trolox/gram DW
- FRAP, the iron reducing antioxidant power [11]: 2743.75 ± 25.20 μg/mL trolox/gram DW

Compound: O=C(C(=O)c1cccc(OC2O[C@H](CO)[C@@H](O)[C@H](O)[C@H]2O)c1)c1ccccc1 (stereo partly drawn) [Compound 21, 1-(3-O-β -D-Glucopyranosylphenyl)-2-phenylethane-1,2-dione]
- MIC [14]: 12 to 27 µg/mL (≈ 30.9 to 69.5 µM)
- MIC [15]: 12 to 27 µg/mL (≈ 30.9 to 69.5 µM)
- IC50 (acetylcholinesterase): > 2.57 mM
- IC50 (butyrylcholinesterase): > 2.57 mM
- α-Glucosidase IC50 (α-glucosidase): >1000 µg/mL
- DPPH radical scavenging capacity (SC50) [9]: 36.94 ± 1.71 mg/mL
- CUPRAC, copper reducing antioxidant power [10]: 109.94 ± 19.42 μg/mL trolox/gram DW
- FRAP, the iron reducing antioxidant power [11]: 1981.25 ± 28.33 μg/mL trolox/gram DW

Compound: O=C(C(=O)c1ccc(OC2O[C@H](CO)[C@@H](O)[C@H](O)[C@H]2O)cc1)c1ccccc1 (stereo partly drawn) [Compound 22, 1-(4-O-β -D-Glucopyranosylphenyl)-2-phenylethane-1,2-dione]
- MIC [14]: 12 to 27 µg/mL (≈ 30.9 to 69.5 µM)
- MIC [15]: 12 to 27 µg/mL (≈ 30.9 to 69.5 µM)
- IC50 (acetylcholinesterase): 0.342 mM
- IC50 (butyrylcholinesterase): 1.36 mM
- α-Glucosidase IC50 (α-glucosidase): 212.24 µg/mL
- DPPH radical scavenging capacity (SC50) [9]: 47.54 ± 1.05 mg/mL
- CUPRAC, copper reducing antioxidant power [10]: 248.97 ± 34.06 μg/mL trolox/gram DW
- FRAP, the iron reducing antioxidant power [11]: 1845.42 ± 41.36 μg/mL trolox/gram DW
